Data from patent US20160002247A1, “8-SUBSTITUTED IMIDAZOPYRIMIDINONE DERIVATIVE HAVING AUTOTAXIN INHIBITORY ACTIVITY” (THE UNIVERSITY OF TOKYO, priority 2013, published 2016).

Each compound was assayed against T1, Human autotaxin enzyme (Homo sapiens, UniProt Q13822) (assay: Evaluation of autotaxin inhibitor, Method C (Test Example 3): 18:0 Lyso PC, choline assay, Resorufin fluorescence). Conditions: Assay Method C (Test Example 3), human autotaxin, 18:0 Lyso PC substrate; read-out: Inhibitory Activity (autotaxin enzyme inhibitory activity, IC50 class).
T1 construct: purchased R&D System
Assay type: biochemical
Procedure, shortened: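 Choline-coupled fluorescence readout (20 min, resorufin at 531/598 nm) followed a 2 h room-temperature reaction of human autotaxin with 18:0 Lyso PC substrate (added as 200 μM solution) in pH 7.5 Tris buffer containing MgCl2 and Triton X-100. Percent inhibition scaled to no-compound (0%) and no-enzyme (100%) wells and plotted versus concentration.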

Row | IC50 | SMILES
1 | 10 to 100 nM | CCCCCn1c(-c2ccc(C(=O)NC)cc2)cc(=O)n2cc(-c3ccc(Cl)cc3)nc12 [Compound 495]
2 | 10 to 100 nM | CCCCCn1c(-c2ccc(C(=O)NCC(=O)N(C)C)cc2)cc(=O)n2cc(-c3ccc(Cl)cc3)nc12 [Compound 496]
3 | 10 to 100 nM | CCCCCn1c(-c2ccc(C(=O)NC3(CO)CCC3)cc2)cc(=O)n2cc(-c3ccc(Cl)cc3)nc12 [Compound 497]
4 | 10 to 100 nM | CCCCCn1c(-c2ccc(C(=O)N3CCN(S(C)(=O)=O)CC3)cc2)cc(=O)n2cc(-c3ccc(Cl)cc3)nc12 [Compound 498]
5 | 10 to 100 nM | CCCCCn1c(-c2ccc(C(=O)NCCS(N)(=O)=O)cc2)cc(=O)n2cc(-c3ccc(Cl)cc3)nc12 [Compound 499]
6 | 10 to 100 nM | CCCCCn1c(-c2ccc(C(=O)NCC(C)=O)cc2)cc(=O)n2cc(-c3ccc(Cl)cc3)nc12 [Compound 500]
7 | 10 to 100 nM | CCCCCn1c(-c2ccc(C(=O)NCCS(=O)(=O)N3CCOCC3)cc2)cc(=O)n2cc(-c3ccc(Cl)cc3)nc12 [Compound 501]
8 | 10 to 100 nM | CCCCCn1c(-c2ccc(C(=O)NC3CCOC3=O)cc2)cc(=O)n2cc(-c3ccc(Cl)cc3)nc12 (centres unmarked) [Compound 502]
9 | 10 to 100 nM | CCCCCn1c(-c2ccc(C(=O)N3C[C@@H]4COC(=O)[C@@H]4C3)cc2)cc(=O)n2cc(-c3ccc(Cl)cc3)nc12 [Compound 503]
10 | 10 to 100 nM | CCCCCn1c(-c2ccc(C(=O)NC[C@@H](O)CO)cc2)cc(=O)n2cc(-c3ccc(Cl)cc3)nc12 [Compound 504]
11 | < 10 nM | CCCCCn1c(-c2ccc(C(=O)NCCCn3ccnc3)cc2)cc(=O)n2cc(-c3ccc(Cl)cc3)nc12 [Compound 505]
12 | 10 to 100 nM | CCCCCn1c(-c2ccc(C(=O)NCc3ccco3)cc2)cc(=O)n2cc(-c3ccc(Cl)cc3)nc12 [Compound 506]
13 | 10 to 100 nM | CCCCCn1c(-c2ccc(C(=O)NCc3ccccn3)cc2)cc(=O)n2cc(-c3ccc(Cl)cc3)nc12 [Compound 507]
14 | 10 to 100 nM | CCCCCn1c(-c2ccc(C(=O)NCCc3ccccn3)cc2)cc(=O)n2cc(-c3ccc(Cl)cc3)nc12 [Compound 508]
15 | 10 to 100 nM | CCCCCn1c(-c2ccc(C(=O)NCc3ccc(N4CCOCC4)cc3)cc2)cc(=O)n2cc(-c3ccc(Cl)cc3)nc12 [Compound 509]
16 | 10 to 100 nM | CCCCCn1c(-c2ccc(C(=O)NCCc3cncn3C)cc2)cc(=O)n2cc(-c3ccc(Cl)cc3)nc12 [Compound 511]
17 | < 10 nM | CCCCCn1c(-c2ccc(C(=O)NCCc3ccc(S(C)(=O)=O)cc3)cc2)cc(=O)n2cc(-c3ccc(Cl)cc3)nc12 [Compound 512]
18 | 10 to 100 nM | CCCCCn1c(-c2ccc(C(=O)NCCS(=O)(=O)N3CCCC3)cc2)cc(=O)n2cc(-c3ccc(Cl)cc3)nc12 [Compound 513]
19 | < 10 nM | CCCCCn1c(-c2ccc(C(=O)NCCn3ccnc3)cc2)cc(=O)n2cc(-c3ccc(Cl)cc3)nc12 [Compound 514]
20 | 10 to 100 nM | CCCCCn1c(-c2ccc(C(=O)NCCN3CCSCC3)cc2)cc(=O)n2cc(-c3ccc(Cl)cc3)nc12 [Compound 515]
21 | 10 to 100 nM | CCCCCn1c(-c2ccc(C(=O)NCCN3CCNC3=O)cc2)cc(=O)n2cc(-c3ccc(Cl)cc3)nc12 [Compound 516]
22 | 10 to 100 nM | CCCCCn1c(-c2ccc(C(=O)NCCC(=O)N3CCOCC3)cc2)cc(=O)n2cc(-c3ccc(Cl)cc3)nc12 [Compound 517]
23 | 100 to 1000 nM | CCCCCn1c(-c2ccc(C(=O)NCc3ccc([N+](=O)[O-])cc3)cc2)cc(=O)n2cc(-c3ccc(Cl)cc3)nc12 [Compound 518]

Row | IC50 | SMILES
24 | 10 to 100 nM | CCCCCn1c(-c2ccc(C(=O)NCc3ccc(S(C)(=O)=O)cc3)cc2)cc(=O)n2cc(-c3ccc(Cl)cc3)nc12 [Compound 519]
25 | 10 to 100 nM | CCCCCn1c(-c2ccc(C(=O)NCCCn3cc(-c4cccnc4)cn3)cc2)cc(=O)n2cc(-c3ccc(Cl)cc3)nc12 [Compound 520]
26 | 10 to 100 nM | CCCCCn1c(-c2ccc(C(=O)NCc3ccc(S(N)(=O)=O)cc3)cc2)cc(=O)n2cc(-c3ccc(Cl)cc3)nc12 [Compound 521]
27 | 10 to 100 nM | CCCCCn1c(-c2ccc(C(=O)NCCNC)cc2)cc(=O)n2cc(-c3ccc(Cl)cc3)nc12 [Compound 522]
28 | 10 to 100 nM | CCCCCn1c(-c2ccc(C(=O)NCCc3c[nH]cn3)cc2)cc(=O)n2cc(-c3ccc(Cl)cc3)nc12 [Compound 523]
29 | 10 to 100 nM | CCCCCn1c(-c2ccc(C(=O)NCCNC3CCS(=O)(=O)C3)cc2)cc(=O)n2cc(-c3ccc(Cl)cc3)nc12 (centres unmarked) [Compound 524]
30 | 10 to 100 nM | CCCCCn1c(-c2ccc(C(=O)NCc3ncc[nH]3)cc2)cc(=O)n2cc(-c3ccc(Cl)cc3)nc12 [Compound 525]
31 | 100 to 1000 nM | CCCCCn1c(-c2ccccn2)cc(=O)n2cc(-c3ccc(Cl)cc3)nc12 [Compound 528]
32 | 100 to 1000 nM | CCCCCn1c(-c2ccc(C(=O)OC)cc2)cc(=O)n2cc(-c3ccc(Cl)cc3)nc12 [Compound 529]
33 | 10 to 100 nM | CCCCCn1c(-c2cnc(C#N)nc2)cc(=O)n2cc(-c3ccc(Cl)cc3)nc12 [Compound 530]
34 | < 10 nM | CCCCCn1c(-c2cnc(CNC(=O)[C@H](O)CO)nc2)cc(=O)n2cc(-c3ccc(Cl)cc3)nc12 [Compound 531]
35 | 10 to 100 nM | CCCCCn1c(-c2cnc(C(=O)OC)nc2)cc(=O)n2cc(-c3ccc(Cl)cc3)nc12 [Compound 532]
36 | < 10 nM | CCCCCn1c(-c2cnc(C(=O)O)nc2)cc(=O)n2cc(-c3ccc(Cl)cc3)nc12 [Compound 533]
37 | < 10 nM | CCCCCn1c(-c2cnc(C(=O)NCCC(=O)OC)nc2)cc(=O)n2cc(-c3ccc(Cl)cc3)nc12 [Compound 534]
38 | < 10 nM | CCCCCn1c(-c2cnc(C(=O)NCCN3CC4(COC4)C3)nc2)cc(=O)n2cc(-c3ccc(Cl)cc3)nc12 [Compound 535]
39 | < 10 nM | CCCCCn1c(-c2cnc(C(=O)NCCC(=O)O)nc2)cc(=O)n2cc(-c3ccc(Cl)cc3)nc12 [Compound 536]
40 | 10 to 100 nM | CCCCCn1c(OC2CNC2)cc(=O)n2cc(-c3ccc(Cl)cc3)nc12 [Compound 537]
41 | 100 to 1000 nM | CCCCCn1c(OC2CCNCC2)cc(=O)n2cc(-c3ccc(Cl)cc3)nc12 [Compound 538]
42 | 10 to 100 nM | CCCCCn1c(OC2CCN(C(=O)CN3CCOCC3)CC2)cc(=O)n2cc(-c3ccc(Cl)cc3)nc12 [Compound 539]
43 | 10 to 100 nM | CCCCCn1c(OC2CCN(CC(=O)O)CC2)cc(=O)n2cc(-c3ccc(Cl)cc3)nc12 [Compound 540]
44 | 100 to 1000 nM | CCCCCn1c(C2=CCN(C(=O)OC(C)(C)C)CC2)cc(=O)n2cc(-c3ccc(Cl)cc3)nc12 [Compound 541]
45 | 100 to 1000 nM | CCCCCn1c(OC2CCN(CCN3CCOCC3)CC2)cc(=O)n2cc(-c3ccc(Cl)cc3)nc12 [Compound 542]
46 | 10 to 100 nM | CCCCCn1c(OC2CN(C(=O)CN3CCOCC3)C2)cc(=O)n2cc(-c3ccc(Cl)cc3)nc12 [Compound 543]

Row | IC50 | SMILES
47 | 100 to 1000 nM | CCCCCn1c(O[C@@H]2CO[C@H]3[C@@H]2OC[C@H]3O)cc(=O)n2cc(-c3ccc(Cl)cc3)nc12 [Compound 544]
48 | 10 to 100 nM | CCCCCn1c(C2=CCN(C(C)=O)CC2)cc(=O)n2cc(-c3ccc(Cl)cc3)nc12 [Compound 546]
49 | 10 to 100 nM | CCCCCn1c(C2=CCN(S(C)(=O)=O)CC2)cc(=O)n2cc(-c3ccc(Cl)cc3)nc12 [Compound 547]
50 | 100 to 1000 nM | CCCCCn1c(OC2CCN(CC(=O)N3CCOCC3)CC2)cc(=O)n2cc(-c3ccc(Cl)cc3)nc12 [Compound 548]
51 | 10 to 100 nM | CCCCCn1c(O[C@H]2CCN(C(=O)OC(C)(C)C)C2)cc(=O)n2cc(-c3ccc(Cl)cc3)nc12 [Compound 549]
52 | 100 to 1000 nM | CCCCCn1c(O[C@@H]2CCN(C(=O)OC(C)(C)C)C2)cc(=O)n2cc(-c3ccc(Cl)cc3)nc12 [Compound 550]
53 | 100 to 1000 nM | CCCCCn1c(O[C@H]2C[C@@H](NC(=O)OC(C)(C)C)C2)cc(=O)n2cc(-c3ccc(Cl)cc3)nc12 [Compound 551]
54 | 100 to 1000 nM | CCCCCn1c(O[C@H]2C[C@H](NC(=O)OC(C)(C)C)C2)cc(=O)n2cc(-c3ccc(Cl)cc3)nc12 [Compound 552]
55 | 100 to 1000 nM | CCCCCn1c(OCC2CCN(C(=O)OC(C)(C)C)C2)cc(=O)n2cc(-c3ccc(Cl)cc3)nc12 (centres unmarked) [Compound 553]
56 | 100 to 1000 nM | CCCCCn1c(OCC2CCCN2C(=O)OC(C)(C)C)cc(=O)n2cc(-c3ccc(Cl)cc3)nc12 (centres unmarked) [Compound 554]
57 | 10 to 100 nM | CCCCCn1c(OC[C@H]2CCCN2C(=O)OC(C)(C)C)cc(=O)n2cc(-c3ccc(Cl)cc3)nc12 [Compound 555]
58 | 10 to 100 nM | CCCCCn1c(O[C@H]2CC[C@H](C(C)(C)C(=O)O)CC2)cc(=O)n2cc(-c3ccc(Cl)cc3)nc12 [Compound 556]
59 | 10 to 100 nM | CCCCCn1c(C2=CCC(C(=O)O)CC2)cc(=O)n2cc(-c3ccc(Cl)cc3)nc12 (centres unmarked) [Compound 557]
60 | 100 to 1000 nM | CCCCCn1c(OC)cc(=O)n2cc(-c3ccc(Cl)cc3)nc12 [Compound 558]
61 | 10 to 100 nM | CCCCCn1c(N(CCC)C(C)=O)cc(=O)n2cc(-c3ccc(Cl)cc3)nc12 [Compound 560]
62 | > 1000 nM | CCCCCn1c(/N=C(\C)OCCC)cc(=O)n2cc(-c3ccc(Cl)cc3)nc12 [Compound 561]
63 | 100 to 1000 nM | CCCCCn1c(N(CCOCCOC)C(C)=O)cc(=O)n2cc(-c3ccc(Cl)cc3)nc12 [Compound 562]
64 | 100 to 1000 nM | CCCCCn1c(/N=C(\C)OCCCOCOC)cc(=O)n2cc(-c3ccc(Cl)cc3)nc12 [Compound 563]
65 | 10 to 100 nM | CCCCCn1c(N(CCCC(=O)OCC)C(C)=O)cc(=O)n2cc(-c3ccc(Cl)cc3)nc12 [Compound 564]
66 | 10 to 100 nM | CCCCCn1c(N(Cc2ccc(C(=O)OC)cc2)C(C)=O)cc(=O)n2cc(-c3ccc(Cl)cc3)nc12 [Compound 566]
67 | > 1000 nM | CCCCCn1c(/N=C(\C)OCc2ccc(C(=O)OC)cc2)cc(=O)n2cc(-c3ccc(Cl)cc3)nc12 [Compound 567]

Row | SMILES | IC50
68 | CCCCCn1c(-c2ccc(C(=O)NC3CN4CCC3CC4)cc2)cc(=O)n2cc(-c3ccc(Cl)cc3)nc12 (centres unmarked) [Compound 510] | < 10 nM
